Assay results reported in US7585873B2, “1-(aminoalkyl)-3-sulfonylazaindoles as 5-hydroxytryptamine-6 ligands” (Wyeth, priority 2002, dated 2009).

Columns and labels:
[1] = molecular target: T1, human cloned 5-HT6 receptors (Homo sapiens, UniProt P50406); assay: 5-HT6 binding affinity, [3H]-LSD displacement on membranes of Hela cells expressing human cloned 5-HT6 receptors; conditions: [3H]-LSD 3.0 nM, Hela cell membranes, 120 min at room temperature; read-out: 5-HT6 Binding Ki
T1 construct: expressed in transfected cells; host or cells: Hela cells
T1 sequence (P50406 whole entry): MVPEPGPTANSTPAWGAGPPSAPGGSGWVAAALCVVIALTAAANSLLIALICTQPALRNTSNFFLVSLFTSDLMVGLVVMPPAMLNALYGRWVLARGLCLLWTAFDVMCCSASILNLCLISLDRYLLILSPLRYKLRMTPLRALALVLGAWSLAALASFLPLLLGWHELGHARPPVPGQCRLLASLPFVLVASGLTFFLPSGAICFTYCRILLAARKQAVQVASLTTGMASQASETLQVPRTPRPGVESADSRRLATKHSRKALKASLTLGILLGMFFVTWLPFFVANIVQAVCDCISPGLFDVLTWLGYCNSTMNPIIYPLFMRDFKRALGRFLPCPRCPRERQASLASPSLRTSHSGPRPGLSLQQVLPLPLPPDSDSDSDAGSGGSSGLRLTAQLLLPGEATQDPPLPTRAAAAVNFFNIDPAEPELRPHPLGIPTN

Ki [1]: 214 nM | melting point: 244 to 246 °C
SMILES: CN(C)CCn1cc(S(=O)(=O)c2ccccc2)c2nc(Cl)ccc21 [Example 81]
